# Test results from US7833532B2, “Immunogenic lipopeptides comprising T-helper and cytotoxic T lymphocyte (CTL) epitopes” (The Council of The Queensland Institute of Medical Research, priority 2002, dated 2010).
# Several values for one entry are separate records, joined by “and”; a condition that tells them apart may be missing. Equal values may be shown once.
# Key:
# Mem 71 influenza virus = conditions: in vivo
# D1 cells = test: Maturation of D1 dendritic cells (surface MHC class II, flow cytometry); assay type: cell-based, BALB/c mouse; conditions: D1 cells, overnight incubation, 0.45 nmoles/mL; LPS positive control
# [1] = system: Lewis Lung tumour cells transfected with ovalbumin; test: Therapeutic treatment of Lewis Lung tumour expressing ovalbumin (tumour incidence and survival); assay type: in vivo, mice; conditions: 20 nmoles s.c. 4 and 11 days after tumour cells; versus non-lipidated peptide or PBS
# Procedure: FIG. 14 is a graphical representation showing therapeutic treatment of Lewis Lung tumour with a lipopeptide immunogen, as determined by the percentage of animals that remain tumor free following immunization. Mice were injected with 3×10^4 Lewis Lung tumour cells that had been transfected with ovalbumin and therefore expressed the CTL epitope […] (SEQ ID NO: 173) [Nelson et al. J Immunol. 166: 5557-5566, 2001]. Four days after receiving tumour cells, animals were inoculated with 20 nmoles lipidated peptide [P25]-Lys(Pam2Cys-Ser-Ser)-[[…]] ([…] disclosed as SEQ ID NO: 173) (open circles), non-lipidated peptide [P25]-Lys-[[…]] […] Animals were monitored for tumour incidence; animals were euthanased when tumour area exceeded 100 mm^2.
# FIG. 15 is a graphical representation showing therapeutic treatment of Lewis Lung tumour with a lipopeptide immunogen, as determined by measuring survival of animals following immunization. […] Animals were monitored for survival; animals were euthanased when tumour area exceeded 100 mm^2.
# Mice were injected with 3×10^4 Lewis Lung tumour cells that had been transfected with ovalbumin and therefore expressed the CTL epitope (Nelson et al., J Immunol. 166: 5557-5566, 2001). […] Animals were monitored for tumour incidence and survival; animals were euthanased when tumour area exceeded 100 mm^2.
# splenocytes = test: IFN-gamma secreting splenocytes in mice vaccinated with […] peptides and challenged with B16-OVA; assay type: in vivo, C57BL/6 mice; conditions: 20 nmoles s.c., B16-OVA challenge; for No. IFN-γ secreting splenocytes per 10^6 splenocytes, Average: average of three samples; for No. IFN-γ secreting splenocytes per 10^6 splenocytes: individual samples, in vitro stimulation with SIINFEKL
# Procedure: (§1) Each of 9 C57BL/6 mice (8-10 wks) were immunised subcutaneously with 20 nmoles of lipidated [P25]-Lys(Pam2Cys-Ser-Ser)-[[…]] ([…] disclosed as SEQ ID NO: 173) or non-lipidated [P25]-Lys-[[…]] ([…] disclosed as SEQ ID NO: 173) peptide in 100 μl volume of saline. In the case of lipidated peptide, lipid was attached between the two epitopes at the approximate centre of the molecule.
# CTL-specific IFN-γ-secreting cells were enumerated by an ELISPOT assay modified from that of Murali-Krishna et al., Immunity 8, 177-187, 1998. Flat-bottom polyvinyl chloride microtiter plates (96-well: Dynatech) were coated overnight with 50 μl of rat anti-(mouse IFN-γ) antibody (clone R4-14a2) at 5 μg/ml in PBS. Unoccupied sites on the wells were then blocked by incubation for 1 h with 10 mg of bovine serum albumin/ml in PBS, and the plates were washed three times with PBS containing 0.05% Tween 20 (PBST). Twofold dilutions of spleen or lymph node cells in T-cell medium were then added to the wells, together with 5×10^5 irradiated (2,200 rads, ^60Co source) syngeneic spleen cells from unimmunized mice and 10 U of recombinant human interleukin-2 (Pharmingen, San Diego, Calif.)/well. Cells were incubated at 37° C. in 5% CO2 for 18 h in the presence or absence of the CTL peptide at a concentration of 1 μg of peptide/ml. Cells were then lysed and removed by rinsing the plates, initially with distilled water and then PBST. Then, 50 μl of a 1/500 dilution of biotinylated anti-(mouse IFN-γ) antibody (clone XMG 1.2; Pharmingen) was added, and the plates were incubated at room temperature for 2 h. Plates were again washed, and 50 μl of streptavidin-alkaline phosphatase (Pharmingen; 1/400 dilution in 5 mg of bovine serum albumin/ml of PBST) was added to each well; the mixtures were then incubated for a further 2 h. […] When blue-green spots had developed, the plates were washed with water and dried, and the spots were counted with the aid of an inverted microscope.
# The ability of the lipopeptide vaccine containing the ovalbumin CTL epitope ([…]) (SEQ ID NO: 173) to induce protection against melanoma cells expressing this CTL epitope (B16-OVA cells) was assessed. IFN-γ production was determined in mice inoculated with lipopeptide comprising a CDV-F T-helper epitope (P25) and a CTL epitope ([…]) (SEQ ID NO: 173) of ovalbumin linked via the epsilon amino group of an internal lysine residue positioned between said epitopes to Pam2Cys (i.e. the peptide [P25]-Lys(Pam2Cys-Ser-Ser)-[[…]] ([…] disclosed as SEQ ID NO: 173) listed in FIG. 2 and based upon SEQ ID NO: 174). […] (SEQ ID NO: 173) and the number of IFN-γ producing cells per 1,000,000 splenocytes was measured.
# B16-OVA cells = test: Protection against B16-OVA melanoma challenge (tumour growth); assay type: in vivo, C57BL/6 mice; conditions: 20 nmoles s.c., 2×10^5 B16-OVA cells 14 days later
# Source text: FIG. 13 is a graphical representation showing protection against B16 melanoma with lipopeptide vaccination. C57BL/6 mice were vaccinated with 20 nmoles lipidated peptide [P25]-Lys(Pam2Cys-Ser-Ser)-[[…]] ([…] disclosed as SEQ ID NO: 173) (open circles), non-lipidated peptide [P25]-Lys-[[…]] ([…] disclosed as SEQ ID NO: 173) (open triangles) or with PBS (open squares) subcutaneously in the base of the tail. Mice were then challenged s.c. on the back 14 days later with 2×10^5 B16-OVA cells (n=6 per group) and tumour growth monitored as described (Anraku, et al., J Virol. 76; 3791-3799, 2002).
# as §1
# 14 days after inoculation with non-lipidated [P25]-Lys-[[…]] ([…] disclosed as SEQ ID NO: 173) or lipidated peptide [P25]-Lys(Pam2Cys-Ser-Ser)-[[…]] […] Growing tumors were monitored, and the animals were sacrificed when tumor size reached 15 by 15 mm. Mean tumor area was calculated for each treatment group at the indicated number of days after the tumor challenge.
# [2] = system: syngeneic spleen cells pulsed with the CTL determinant; conditions: mouse
compound,measurement,setting,value
ALNNRFQIKGVELKSKTYQRTRALV [[Th]-Lys-[CTL]],reduction in viral load in the lungs compared to PBS alone,Mem 71 influenza virus,65%
same,"maturation of dendritic cells / up-regulation of MHC class II expression (comparative, in words)",D1 cells,least effective
[P25]-Lys(Pam2Cys-Ser-Ser)-[SIINFEKL]: peptide [P25]-Lys-[SIINFEKL] and a lipid of the Formula (IV) conjugated to the epsilon-amino group of the internal lysine (KLIPNASLIENCTKAELKSIINFEKL; Pam2Cys-Ser-Ser lipid on internal lysine),percentage of animals with fewer lesions developing (tumour free),[1],significantly higher
same,survival,[1],survived for longer
same,"No. IFN-γ secreting splenocytes per 10^6 splenocytes, Average",splenocytes,227 per 10^6 splenocytes
same,No. IFN-γ secreting splenocytes per 10^6 splenocytes,splenocytes,284 per 10^6 splenocytes and 205 per 10^6 splenocytes and 192 per 10^6 splenocytes
same,tumour growth (in words),B16-OVA cells; over a 15 day period,No tumour growth
KLIPNASLIENCTKAELKSIINFEKL [reference compound],"No. IFN-γ secreting splenocytes per 10^6 splenocytes, Average",splenocytes,14 per 10^6 splenocytes
same,No. IFN-γ secreting splenocytes per 10^6 splenocytes,splenocytes,18 per 10^6 splenocytes and 14 per 10^6 splenocytes and 10 per 10^6 splenocytes
same,tumour size,B16-OVA cells; 15 day period,greater than 75 mm^2
CCCCCCCCCCCCCCCC(=O)N[C@@H](CSCC(COC(=O)CCCCCCCCCCCCCCC)OC(=O)CCCCCCCCCCCCCCC)C(=O)N[C@@H](CO)C(=O)N[C@@H](CO)C(=O)NCCCC[C@H](NC(=O)[C@H](CO)NC(=O)[C@H](CCCCN)NC(=O)[C@H](CC(C)C)NC(=O)[C@H](CCC(=O)O)NC(=O)[C@@H](NC(=O)CNC(=O)[C@H](CCCCN)NC(=O)[C@@H](NC(=O)[C@H](CCC(N)=O)NC(=O)[C@H](Cc1ccccc1)NC(=O)[C@H](CCCNC(=N)N)NC(=O)[C@H](CC(N)=O)NC(=O)[C@H](CC(N)=O)NC(=O)[C@H](CC(C)C)NC(=O)[C@H](C)N)[C@@H](C)CC)C(C)C)C(=O)N[C@H](C(=O)N[C@@H](Cc1ccc(O)cc1)C(=O)N[C@@H](CCC(N)=O)C(=O)N[C@@H](CCCNC(=N)N)C(=O)N[C@H](C(=O)N[C@@H](CCCNC(=N)N)C(=O)N[C@@H](C)C(=O)N[C@@H](CC(C)C)C(=O)N[C@H](C(=O)O)C(C)C)[C@@H](C)O)[C@@H](C)O (stereo partly drawn) [[Th]-Lys(Pam3Cys-Ser-Ser)-[CTL]],CTL determinant specific cytotoxicity (specific lysis) in vivo,[2],marked enhancement of specific lysis in vivo
